From patent publication US12441691B2 (Cytokinetics, Inc., priority 2020, dated 2025) come the findings set out here.

Each structure is given as a SMILES string.

The subject of this experiment is rabbit skeletal myofibrils (fast skeletal myofibrils). Kind of experiment: Activation of fast skeletal myofibrils (PUMA assay, AC1.4). Type of experiment: biochemical. To be noted: calcium at pCa25, AC1.4 = concentration at which the compound increased the enzymatic activity. The essentials:
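In 12 mM PIPES pH 6.8 with 2 mM MgCl2 and 1 mM DTT, Triton-washed rabbit skeletal myofibrils were run at the pCa25 calcium level. Myosin-made ADP was recycled through a PK/LDH coupled system; NADH loss read at 340 nm.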
With `CC(=O)N1Cc2ccccc2NC(=O)[C@@H]1C(C)C` [Compound 326, (S)-4-acetyl-3-isopropyl-1,3,4,5-tetrahydro-2H-benzo[e][1,4]diazepin-2-one], the AC1.4 came out at 4.38 µM.
Regarding `CC(C)[C@H]1C(=O)Nc2ccccc2CN1C(=O)c1cc[nH]c(=O)c1` [Compound 327, (S)-3-isopropyl-4-(2-oxo-1,2-dihydropyridine-4-carbonyl)-1,3,4,5-tetrahydro-2H-benzo[e][1,4]diazepin-2-one], the AC1.4 stood at 1.50 µM.
With `CC(C)[C@H]1C(=O)Nc2ccccc2CN1C(=O)c1cnn(CCO)c1` [Compound 328, (S)-4-(1-(2-hydroxyethyl)-1H-pyrazole-4-carbonyl)-3-isopropyl-1,3,4,5-tetrahydro-2H-benzo[e][1,4]diazepin-2-one], the AC1.4 was 2.56 µM.
The result for `CC(C)[C@H]1C(=O)Nc2ccccc2CN1C(=O)c1ccc(C(N)=O)[nH]1` [Compound 329, (S)-5-(3-isopropyl-2-oxo-2,3,4,5-tetrahydro-1H-benzo[e][1,4]diazepine-4-carbonyl)-1H-pyrrole-2-carboxamide] reads 0.20 µM.
The value for `COCCn1cc(C(=O)N2Cc3ccccc3NC(=O)[C@@H]2C(C)C)cn1` [Compound 330, (S)-3-isopropyl-4-(1-(2-methoxyethyl)-1H-pyrazole-4-carbonyl)-1,3,4,5-tetrahydro-2H-benzo[e][1,4]diazepin-2-one] was 1.71 µM; that for `CC(C)[C@H]1C(=O)Nc2ccccc2CN1C(=O)c1cn[nH]c1` [Compound 331, (S)-3-isopropyl-4-(1H-pyrazole-4-carbonyl)-1,3,4,5-tetrahydro-2H-benzo[e][1,4]diazepin-2-one] was 1.03 µM; that for `CC(C)[C@H]1C(=O)Nc2ccccc2CN1C(=O)N1CC(O)C1` [Compound 332, (S)-4-(3-hydroxyazetidine-1-carbonyl)-3-isopropyl-1,3,4,5-tetrahydro-2H-benzo[e][1,4]diazepin-2-one] was 2.37 µM.
The value for `CC(C)[C@H]1C(=O)Nc2ccccc2CN1S(=O)(=O)N(C)C` [Compound 333, (S)-3-isopropyl-N,N-dimethyl-2-oxo-1,2,3,5-tetrahydro-4H-benzo[e][1,4]diazepine-4-sulfonamide] was 2.44 µM; that for `CC(C)[C@H]1C(=O)Nc2ccccc2CN1c1c(N)c(=O)c1=O` [Compound 334, (S)-3-amino-4-(3-isopropyl-2-oxo-1,2,3,5-tetrahydro-4H-benzo[e][1,4]diazepin-4-yl)cyclobut-3-ene-1,2-dione] was 0.65 µM; that for `CNC(=O)N1Cc2ccccc2NC(=O)[C@@H]1C(C)C` [Compound 335, (S)-3-isopropyl-N-methyl-2-oxo-1,2,3,5-tetrahydro-4H-benzo[e][1,4]diazepine-4-carboxamide] was 3.75 µM.
On to `CC[C@H](C)[C@H]1C(=O)Nc2cccc(F)c2CN1/C(N)=N\C#N` [Compound 336, (S,Z)-3-((S)-sec-butyl)-N′-cyano-6-fluoro-2-oxo-1,2,3,5-tetrahydro-4H-benzo[e][1,4]diazepine-4-carboximidamide], for which the AC1.4 stood at 0.12 µM.
`CC[C@H](C)[C@H]1C(=O)Nc2cccc(F)c2CN1C(=O)N1CC(O)C1` [Compound 337, (S)-3-((S)-sec-butyl)-6-fluoro-4-(3-hydroxyazetidine-1-carbonyl)-1,3,4,5-tetrahydro-2H-benzo[e][1,4]diazepin-2-one]: the AC1.4 was 0.72 µM.
The value for `CC[C@H](C)[C@H]1C(=O)Nc2cccc(F)c2CN1C(=O)NC` [Compound 338, (S)-3-((S)-sec-butyl)-6-fluoro-N-methyl-2-oxo-1,2,3,5-tetrahydro-4H-benzo[e][1,4]diazepine-4-carboxamide] was 0.69 µM; that for `CC[C@H](C)[C@H]1C(=O)Nc2cccc(F)c2CN1C(=O)CCO` [Compound 339, (S)-3-((S)-sec-butyl)-6-fluoro-4-(3-hydroxypropanoyl)-1,3,4,5-tetrahydro-2H-benzo[e][1,4]diazepin-2-one] was 2.79 µM; that for `CC[C@H](C)[C@H]1C(=O)Nc2cccc(F)c2CN1C(=O)N1CC[C@H](O)C1` [Compound 340, (S)-3-((S)-sec-butyl)-6-fluoro-4-((S)-3-hydroxypyrrolidine-1-carbonyl)-1,3,4,5-tetrahydro-2H-benzo[e][1,4]diazepin-2-one] was 3.00 µM.
As for `CC[C@H](C)[C@H]1C(=O)Nc2ccc(F)cc2CN1C(=O)CO` [Compound 341, (S)-3-((S)-sec-butyl)-7-fluoro-4-(2-hydroxyacetyl)-1,3,4,5-tetrahydro-2H-benzo[e][1,4]diazepin-2-one], the AC1.4 is 2.37 µM.
The result for `CC[C@H](C)[C@H]1C(=O)Nc2ccc(F)cc2CN1C(=O)c1cn[nH]c1` [Compound 342, (S)-3-((S)-sec-butyl)-7-fluoro-4-(1H-pyrazole-4-carbonyl)-1,3,4,5-tetrahydro-2H-benzo[e][1,4]diazepin-2-one] reads 0.27 µM; that for `CC[C@H](C)[C@H]1C(=O)Nc2ccc(F)cc2CN1C(=O)c1ncn[nH]1` [Compound 343, (S)-3-((S)-sec-butyl)-7-fluoro-4-(1H-1,2,4-triazole-5-carbonyl)-1,3,4,5-tetrahydro-2H-benzo[e][1,4]diazepin-2-one], 0.25 µM.
The result for `CC[C@H](C)[C@H]1C(=O)Nc2ccc(F)cc2CN1C(=O)c1cccc(=O)[nH]1` [Compound 344, (S)-3-((S)-sec-butyl)-7-fluoro-4-(6-oxo-1,6-dihydropyridine-2-carbonyl)-1,3,4,5-tetrahydro-2H-benzo[e][1,4]diazepin-2-one] reads 1.91 µM.
The value for `CC[C@H](C)[C@H]1C(=O)Nc2ccc(F)cc2CN1S(N)(=O)=O` [Compound 345, (S)-3-((S)-sec-butyl)-7-fluoro-2-oxo-1,2,3,5-tetrahydro-4H-benzo[e][1,4]diazepine-4-sulfonamide] was 2.43 µM; that for `CC[C@H](C)[C@H]1C(=O)Nc2ccc(F)cc2CN1C(=O)N1CC(C)(O)C1` [Compound 346, (S)-3-((S)-sec-butyl)-7-fluoro-4-(3-hydroxy-3-methylazetidine-1-carbonyl)-1,3,4,5-tetrahydro-2H-benzo[e][1,4]diazepin-2-one] was 1.57 µM; that for `CC[C@H](C)[C@H]1C(=O)Nc2ccc(F)cc2CN1C(=O)N1CC[C@H](O)C1` [Compound 347, (S)-3-((S)-sec-butyl)-7-fluoro-4-((S)-3-hydroxypyrrolidine-1-carbonyl)-1,3,4,5-tetrahydro-2H-benzo[e][1,4]diazepin-2-one] was 3.59 µM.
As for `CC[C@H](C)[C@H]1C(=O)Nc2ccc(F)cc2CN1C(=O)NC` [Compound 348, (S)-3-((S)-sec-butyl)-7-fluoro-N-methyl-2-oxo-1,2,3,5-tetrahydro-4H-benzo[e][1,4]diazepine-4-carboxamide], the AC1.4 turned out to be 0.72 µM.
The value for `CC[C@H](C)[C@H]1C(=O)Nc2ccc(F)cc2CN1C(=O)N[C@H]1CCN(CCO)C1` [Compound 349, (S)-3-((S)-sec-butyl)-7-fluoro-N-((S)-1-(2-hydroxyethyl)pyrrolidin-3-yl)-2-oxo-1,2,3,5-tetrahydro-4H-benzo[e][1,4]diazepine-4-carboxamide] was 1.57 µM; that for `CC[C@H](C)[C@H]1C(=O)Nc2ccc(F)cc2CN1C(=O)N[C@H]1CCN(C)C1` [Compound 350, (S)-3-((S)-sec-butyl)-7-fluoro-N-((S)-1-methylpyrrolidin-3-yl)-2-oxo-1,2,3,5-tetrahydro-4H-benzo[e][1,4]diazepine-4-carboxamide] was 1.11 µM.
For the compound `CC[C@H](C)[C@H]1C(=O)Nc2ccc(F)cc2CN1C(=O)NC1CCN(CCO)CC1` [Compound 351, (S)-3-((S)-sec-butyl)-7-fluoro-N-(1-(2-hydroxyethyl)piperidin-4-yl)-2-oxo-1,2,3,5-tetrahydro-4H-benzo[e][1,4]diazepine-4-carboxamide], the AC1.4 is 1.17 µM.
The result for `CC[C@H](C)[C@H]1C(=O)Nc2ccc(F)cc2CN1C(=O)N[C@H]1CC[C@H](O)CC1` [Compound 352, (S)-3-((S)-sec-butyl)-7-fluoro-N-((1r,4S)-4-hydroxycyclohexyl)-2-oxo-1,2,3,5-tetrahydro-4H-benzo[e][1,4]diazepine-4-carboxamide] reads 0.73 µM.
The value for `CC[C@H](C)[C@H]1C(=O)Nc2ccc(F)cc2CN1C(=O)N[C@H]1CC[C@H](O)C1` [Compound 353, (S)-3-((S)-sec-butyl)-7-fluoro-N-((1S,3S)-3-hydroxycyclopentyl)-2-oxo-1,2,3,5-tetrahydro-4H-benzo[e][1,4]diazepine-4-carboxamide] was 1.76 µM.
The result for `CC[C@H](C)[C@H]1C(=O)Nc2ccc(F)cc2CN1C(=O)N[C@H]1C[C@H](O)C1` [Compound 354, (S)-3-((S)-sec-butyl)-7-fluoro-N-((1r,3S)-3-hydroxycyclobutyl)-2-oxo-1,2,3,5-tetrahydro-4H-benzo[e][1,4]diazepine-4-carboxamide] reads 1.59 µM; that for `CC[C@H](C)[C@H]1C(=O)Nc2ccc(F)cc2CN1C(=O)N[C@H]1C[C@@H](O)C1` [Compound 355, (S)-3-((S)-sec-butyl)-7-fluoro-N-((1s,3R)-3-hydroxycyclobutyl)-2-oxo-1,2,3,5-tetrahydro-4H-benzo[e][1,4]diazepine-4-carboxamide], 1.49 µM.
In the case of `CC[C@H](C)[C@H]1C(=O)Nc2cc(F)ccc2CN1C(=O)NC1CCN(CCO)CC1` [Compound 356, (S)-3-((S)-sec-butyl)-8-fluoro-N-(1-(2-hydroxyethyl)piperidin-4-yl)-2-oxo-1,2,3,5-tetrahydro-4H-benzo[e][1,4]diazepine-4-carboxamide], the AC1.4 came out at 0.24 µM.
The result for `CC[C@H](C)[C@H]1C(=O)Nc2cc(F)ccc2CN1C(=O)N[C@H]1CCN(C)C1` [Compound 358, (S)-3-((S)-sec-butyl)-8-fluoro-N-((S)-1-methylpyrrolidin-3-yl)-2-oxo-1,2,3,5-tetrahydro-4H-benzo[e][1,4]diazepine-4-carboxamide] reads 0.40 µM.
